Where a name gives a salt, the structure may show the parent alone.
Molecular target: T1, CYP11A1 (Homo sapiens, UniProt P05108)
T1 construct: human H295R adrenocortical carcinoma cell line was used as source of enzyme; endogenous in cells; host or cells: H295R human adrenocortical carcinoma cells
T1 sequence (P05108 40-521): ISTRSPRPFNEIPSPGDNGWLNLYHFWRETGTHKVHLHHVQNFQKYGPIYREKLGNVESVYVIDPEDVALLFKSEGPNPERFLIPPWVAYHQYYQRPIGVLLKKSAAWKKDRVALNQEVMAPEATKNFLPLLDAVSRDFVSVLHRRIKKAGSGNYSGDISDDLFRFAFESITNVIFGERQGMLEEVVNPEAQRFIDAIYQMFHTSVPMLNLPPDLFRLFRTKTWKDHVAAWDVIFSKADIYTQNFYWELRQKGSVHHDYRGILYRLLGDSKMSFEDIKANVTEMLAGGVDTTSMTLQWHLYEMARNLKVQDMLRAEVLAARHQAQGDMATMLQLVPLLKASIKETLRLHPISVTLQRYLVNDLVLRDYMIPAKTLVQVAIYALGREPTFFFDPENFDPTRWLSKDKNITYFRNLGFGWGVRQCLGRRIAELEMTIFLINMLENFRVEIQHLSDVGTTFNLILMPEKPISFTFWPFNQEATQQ
Assay: CYP11A1 inhibition: modified isocaproic acid release assay (IARA) in H295R cells
Format: cell-based
Conditions: human H295R adrenocortical carcinoma cells treated three days, 3 nM [24,25-3H]-labelled cholesterol, 1% DMSO, 10 concentrations in duplicates; read-out: IC50 of the test compounds on CYP11A1 inhibition
Method in brief: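 H295R adrenocortical cells treated three days with test compounds at 10 concentrations in duplicate plus 3 nM [24,25-3H]-cholesterol, 1% DMSO final. Released radiolabelled isocaproic acid measured by scintillation counting after dextran-coated charcoal extraction; IC50 determined.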

**Q.** `CCOC(=O)c1cnn(-c2ccc(COc3coc(CN4Cc5ccccc5C4)cc3=O)cc2)c1` [Compound 40, Ethyl 1-(4-(((6-(isoindolin-2-ylmethyl)-4-oxo-4H-pyran-3-yl)oxy)methyl)phenyl)-1H-pyrazole-4-carboxylate] was tested. Which IC50 did it give?
**A.** 301 to 2000 nM

**Q.** How did the IC50 turn out when `CS(=O)(=O)N1CCC(COc2coc(CN3Cc4ccc([N+](=O)[O-])cc4C3)cc2=O)CC1` [Compound 207, 5-((1-(Methylsulfonyl)piperidin-4-yl)methoxy)-2-((5-nitroisoindolin-2-yl)methyl)-4H-pyran-4-one] was run?
**A.** 301 to 2000 nM

**Q.** How did the IC50 turn out when `CCN(CC)C(=O)c1ccc(COc2coc(CN3Cc4ccccc4C3)cc2=O)cc1` [Compound 126, N,N-Diethyl-4-(((6-(isoindolin-2-ylmethyl)-4-oxo-4H-pyran-3-yl)oxy)methyl)-benzamide] was run?
**A.** 150 to 300 nM

**Q.** How did the IC50 turn out when `CC(F)(F)C(=O)N1CCC(COc2coc(CN3Cc4ccc(F)cc4C3)cc2=O)CC1` [Compound 223, 5-((1-(2,2-Difluoropropanoyl)piperidin-4-yl)methoxy)-2-((5-fluoroisoindolin-2-yl)methyl)-4H-pyran-4-one] was run?
**A.** 150 to 300 nM

**Q.** With `CC(C)(C)OC(=O)N1CC[C@@H](COc2coc(CN3Cc4ccccc4C3)cc2=O)C1` [Compound 199, (R)-tert-Butyl 3-(((6-(isoindolin-2-ylmethyl)-4-oxo-4H-pyran-3-yl)oxy)methyl)-pyrrolidine-1-carboxylate] as the compound, how does the IC50 read?
**A.** 150 to 300 nM

**Q.** How did the IC50 turn out when `CCC(=O)N1CCC(COc2coc(CN3Cc4ccc(F)cc4C3)cc2=O)CC1` [Compound 224, 2-((5-Fluoroisoindolin-2-yl)methyl)-5-((1-propionylpiperidin-4-yl)methoxy)-4H-pyran-4-one] was run?
**A.** < 150 nM

**Q.** How did the IC50 turn out when `O=c1cc(CN2Cc3ccccc3C2)occ1OCC1CCOCC1` [Compound 67, 2-(Isoindolin-2-ylmethyl)-5-((tetrahydro-2H-pyran-4-yl)methoxy)-4H-pyran-4-one] was run?
**A.** 150 to 300 nM

**Q.** `CS(=N)(=O)C1CCC(COc2coc(CN3Cc4ccccc4C3)cc2=O)CC1` (stereo not shown) [Compound 240, 2-(Isoindolin-2-ylmethyl)-5-((4-(S-methylsulfonimidoyl)cyclohexyl)methoxy)-4H-pyran-4-one] was tested. Which IC50 did it give?
**A.** 301 to 2000 nM

**Q.** Which IC50 does the source give for `CS(=O)(=O)N1CCC(COc2coc(CN3Cc4ccc(F)cc4C3)cc2=O)CC1` [Compound 186, 2-((5-Fluoroisoindolin-2-yl)methyl)-5-((1-(methylsulfonyl)piperidin-4-yl)-methoxy)-4H-pyran-4-one] here?
**A.** < 150 nM

**Q.** For `CS(=O)(=O)c1ccc(COc2coc(CN3Cc4ccccc4C3)cc2=O)c(F)c1` [Compound 34, 5-((2-Fluoro-4-(methylsulfonyl)benzyl)oxy)-2-(isoindolin-2-ylmethyl)-4H-pyran-4-one], which IC50 is on record?
**A.** 150 to 300 nM

**Q.** `CC1(C)c2ccccc2CN1Cc1cc(=O)c(OCC2CCN(S(C)(=O)=O)CC2)co1` [Compound 212, 2-((1,1-Dimethylisoindolin-2-yl)methyl)-5-((1-(methylsulfonyl)piperidin-4-yl)-methoxy)-4H-pyran-4-one] was tested. Which IC50 did it give?
**A.** 301 to 2000 nM

**Q.** With `CC(C)(C)OC(=O)N1CC[C@H](COc2coc(CN3Cc4ccccc4C3)cc2=O)C1` [Compound 200, (S)-tert-Butyl 3-(((6-(isoindolin-2-ylmethyl)-4-oxo-4H-pyran-3-yl)oxy)methyl)-pyrrolidine-1-carboxylate] as the compound, how does the IC50 read?
**A.** 150 to 300 nM

**Q.** Which IC50 does the source give for `CS(=O)(=O)N1CC[C@@H](COc2coc(CN3Cc4ccccc4C3)cc2=O)C1` [Compound 277, (R)-2-(Isoindolin-2-ylmethyl)-5-((1-(methylsulfonyl)pyrrolidin-3-yl)methoxy)-4H-pyran-4-one] here?
**A.** 301 to 2000 nM

**Q.** With `CNC(=O)N1CCC(COc2coc(CN3Cc4ccccc4C3)cc2=O)CC1` [Compound 228, 4-(((6-(Isoindolin-2-ylmethyl)-4-oxo-4H-pyran-3-yl)oxy)methyl)-N-methyl-piperidine-1-carboxamide] as the compound, how does the IC50 read?
**A.** 150 to 300 nM

**Q.** For `O=c1cc(CN2Cc3ccccc3C2)occ1OCc1ccc(S(=O)(=O)C2COC2)cc1` [Compound 233, 2-(Isoindolin-2-ylmethyl)-5-((4-(oxetan-3-ylsulfonyl)benzyl)oxy)-4H-pyran-4-one], which IC50 is on record?
**A.** 150 to 300 nM

**Q.** With `CS(C)(=O)=NC(=O)c1ccc(COc2coc(CN3Cc4ccccc4C3)cc2=O)cc1` [Compound 83, 4-({[6-(1,3-Dihydro-2H-isoindol-2-ylmethyl)-4-oxo-4H-pyran-3-yl]oxy}methyl)-N-[dimethyl(oxido)-λ^6-sulfanylidene]benzamide] as the compound, how does the IC50 read?
**A.** < 150 nM

**Q.** With `CCCC(=O)N1CCC(COc2coc(CN3Cc4ccccc4C3)cc2=O)CC1` [Compound 221, 5-((1-Butyrylpiperidin-4-yl)methoxy)-2-(isoindolin-2-ylmethyl)-4H-pyran-4-one] as the compound, how does the IC50 read?
**A.** < 150 nM

**Q.** How did the IC50 turn out when `CC(C)NC(=O)c1ccc(COc2coc(CN3Cc4ccccc4C3)cc2=O)cc1` [Compound 140, 4-(((6-(Isoindolin-2-ylmethyl)-4-oxo-4H-pyran-3-yl)oxy)methyl)-N-isopropylbenzamide] was run?
**A.** 150 to 300 nM

**Q.** With `COCCN(C)S(=O)(=O)c1ccc(COc2coc(CN3Cc4ccccc4C3)cc2=O)cc1` [Compound 20, 4-(((6-(Isoindolin-2-ylmethyl)-4-oxo-4H-pyran-3-yl)oxy)methyl)-N-(2-methoxyethyl)-N-methylbenzenesulfonamide] as the compound, how does the IC50 read?
**A.** 150 to 300 nM

**Q.** How did the IC50 turn out when `O=c1cc(CN2CCc3ccccc3C2)occ1OCc1ccc(C2(O)COC2)cc1` [Compound 117, 2-((3,4-Dihydroisoquinolin-2(1H)-yl)methyl)-5-((4-(3-hydroxyoxetan-3-yl)-benzyl)oxy)-4H-pyran-4-one] was run?
**A.** 301 to 2000 nM

**Q.** How did the IC50 turn out when `NC(=O)c1ccc(COc2coc(CN3CCc4ccccc4C3)cc2=O)cc1` [Compound 43, 4-(((6-((3,4-Dihydroisoquinolin-2(1H)-yl)methyl)-4-oxo-4H-pyran-3-yl)oxy)-methyl)benzamide] was run?
**A.** 301 to 2000 nM

**Q.** Which IC50 does the source give for `CS(=O)(=O)c1ccc(COc2coc(CN3Cc4ccc(Cl)cc4C3)cc2=O)cc1` [Compound 64, 2-((5-Chloroisoindolin-2-yl)methyl)-5-((4-(methylsulfonyl)benzyl)oxy)-4H-pyran-4-one] here?
**A.** 150 to 300 nM

**Q.** `O=CN1CCC(COc2coc(CN3Cc4ccccc4C3)cc2=O)CC1` [Compound 284, 4-(((6-(Isoindolin-2-ylmethyl)-4-oxo-4H-pyran-3-yl)oxy)methyl)piperidine-1-carbaldehyde, HCl] was tested. Which IC50 did it give?
**A.** 150 to 300 nM

**Q.** How did the IC50 turn out when `CCC(=O)N1CCC(COc2coc(CN3Cc4ccccc4C3)cc2=O)CC1` [Compound 261, 2-(Isoindolin-2-ylmethyl)-5-((1-propionylpiperidin-4-yl)methoxy)-4H-pyran-4-one] was run?
**A.** < 150 nM

**Q.** `O=c1cc(CN2Cc3ccccc3C2)occ1OCC1CCN(S(=O)(=O)C2COC2)CC1` [Compound 36, 2-(Isoindolin-2-ylmethyl)-5-((1-(oxetan-3-ylsulfonyl)piperidin-4-yl)methoxy)-4H-pyran-4-one] was tested. Which IC50 did it give?
**A.** < 150 nM

**Q.** How did the IC50 turn out when `CS(=N)(=O)c1ccc(COc2coc(CN3Cc4ccc(F)cc4C3)cc2=O)cc1` (stereo not shown) [Compound 88, 2-((5-Fluoroisoindolin-2-yl)methyl)-5-((4-(S-methylsulfonimidoyl)benzyl)oxy)-4H-pyran-4-one] was run?
**A.** 150 to 300 nM

**Q.** For `COc1ccc2c(c1)CN(Cc1cc(=O)c(OCc3ccc(C(=O)N(C)C)cc3)co1)C2` [Compound 138, 4-(((6-((5-Methoxyisoindolin-2-yl)methyl)-4-oxo-4H-pyran-3-yl)oxy)methyl)-N,N-dimethylbenzamide], which IC50 is on record?
**A.** < 150 nM

**Q.** `CS(=O)(=O)N1C=CC(COc2coc(CN3Cc4ccc(C(F)(F)F)cc4C3)cc2=O)CC1` (stereo not shown) [Compound 291, 5-((1-(Methylsulfonyl)-1,2,3,4-tetrahydropyridin-4-yl)methoxy)-2-((5-(trifluoro-methyl)isoindolin-2-yl)methyl)-4H-pyran-4-one] was tested. Which IC50 did it give?
**A.** 150 to 300 nM

**Q.** For `N=S1(=O)CCC(COc2coc(CN3Cc4ccccc4C3)cc2=O)CC1` (stereo not shown) [Compound 242, 5-((1-Imino-1-oxidohexahydro-1λ^6-thiopyran-4-yl)methoxy)-2-(isoindolin-2-ylmethyl)-4H-pyran-4-one], which IC50 is on record?
**A.** 301 to 2000 nM

**Q.** `CS(=O)(=O)N1CCC(COc2coc(CN3Cc4ccccc4C3)cc2=O)=C(F)C1` [Compound 104, 5-((5-Fluoro-1-(methylsulfonyl)-1,2,3,6-tetrahydropyridin-4-yl)methoxy)-2-(isoindolin-2-ylmethyl)-4H-pyran-4-one] was tested. Which IC50 did it give?
**A.** < 150 nM

**Q.** For `CS(=O)(=O)N1CCC(COc2coc(CN3Cc4ccccc4C3)cc2=O)CC1` [Compound 185, 2-(Isoindolin-2-ylmethyl)-5-((1-(methylsulfonyl)piperidin-4-yl)methoxy)-4H-pyran-4-one], which IC50 is on record?
**A.** < 150 nM

**Q.** Which IC50 does the source give for `NC(=O)c1ccc(COc2coc(CN3Cc4ccccc4C3)cc2=O)cc1F` [Compound 171, 2-Fluoro-4-(((6-(isoindolin-2-ylmethyl)-4-oxo-4H-pyran-3-yl)oxy)methyl)-benzamide] here?
**A.** 301 to 2000 nM

**Q.** With `O=C(NC1CCSC1=O)c1ccc(COc2coc(CN3Cc4ccccc4C3)cc2=O)cc1` (stereo not shown) [Compound 96, 4-(((6-(Isoindolin-2-ylmethyl)-4-oxo-4H-pyran-3-yl)oxy)methyl)-N-(2-oxotetra-hydrothiophen-3-yl)benzamide] as the compound, how does the IC50 read?
**A.** 301 to 2000 nM

**Q.** `CSc1ccc2c(c1)CN(Cc1cc(=O)c(OCC3CCN(S(C)(=O)=O)CC3)co1)C2` [Compound 208, 5-((1-(Methylsulfonyl)piperidin-4-yl)methoxy)-2-((5-(methylthio)isoindolin-2-yl)methyl)-4H-pyran-4-one] was tested. Which IC50 did it give?
**A.** 150 to 300 nM
